According to BigSolDB 2.1:

Nc1nc(=O)[nH]cc1F
solubility (mole fraction)
Conditions	in 1,4-dioxane	in 2-butanone	in DMF	in DMSO	in acetone	in acetonitrile	in ethyl acetate	in isopropanol	in n-butanol	in n-propanol
283.15 K	1.13e-05	4.37e-05	0.00113	0.00559	6.9e-05	7e-06	3.5e-06	0.00016	0.000282	0.000222
288.15 K	1.51e-05	5.91e-05	0.00127	0.00611	8.62e-05	9.6e-06	4.5e-06	0.000204	0.000332	0.000272
293.15 K	1.92e-05	7.74e-05	0.00146	0.00675	0.000107	1.31e-05	6.2e-06	0.000253	0.000399	0.000334
298.15 K	2.37e-05	9.76e-05	0.00169	0.00754	0.000131	1.77e-05	8.6e-06	0.000314	0.000477	0.000406
303.15 K	2.82e-05	0.000121	0.00193	0.00838	0.000158	2.23e-05	1.14e-05	0.000382	0.000567	0.000489
308.15 K	3.43e-05	0.000149	0.0022	0.00932	0.000192	2.84e-05	1.46e-05	0.000461	0.000674	0.000577
313.15 K	4.17e-05	0.000184	0.00252	0.0103	0.000224	3.58e-05	1.93e-05	0.000548	0.000787	0.000677
318.15 K	5.08e-05	0.000223	0.00287	0.0115	0.000273	4.5e-05	2.45e-05	0.000643	0.000916	0.000792
323.15 K	6.07e-05	0.000271	0.00329	0.0129	0.000321	5.67e-05	3.11e-05	0.000757	0.00107	0.000923
